Results on 16 molecules are retold here after patent US4755508A, “Benzodiazepine analogs and use as antogonists of gastrin and cholecystokinin” (Merck & Co., Inc., priority 1987, dated 1988).

One assay relates to CCK receptor. The settings on record: structure-function studies; cited from earlier work.
In assay [1] the target is T1, CCK receptor (guinea pig cerebral cortex) (Cavia porcellus, UniProt H0VZC5).
T1 construct: Cerebral cortex was dissected and used as a receptor source; from tissue; host or cells: cerebral cortex of male Hartley guinea pigs (membranes)
T1 sequence (H0VZC5 entry or part of it): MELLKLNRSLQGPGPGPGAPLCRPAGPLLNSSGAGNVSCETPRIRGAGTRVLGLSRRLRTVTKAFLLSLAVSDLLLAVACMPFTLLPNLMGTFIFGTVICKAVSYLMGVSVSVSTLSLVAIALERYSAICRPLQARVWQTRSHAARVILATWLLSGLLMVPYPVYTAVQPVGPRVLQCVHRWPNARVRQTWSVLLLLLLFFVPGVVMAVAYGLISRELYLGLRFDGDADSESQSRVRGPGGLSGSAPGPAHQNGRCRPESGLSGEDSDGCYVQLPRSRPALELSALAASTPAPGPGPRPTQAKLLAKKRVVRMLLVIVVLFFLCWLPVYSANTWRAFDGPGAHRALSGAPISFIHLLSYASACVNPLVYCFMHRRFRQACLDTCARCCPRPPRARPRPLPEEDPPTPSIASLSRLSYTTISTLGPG
Briefly: 125I-CCK receptor binding (brain). The conditions noted are these: 125I-CCK-33, guinea pig cerebral cortex, 25° C., 2 hours. As for the experimental part: CCK-33 was radiolabeled and the binding was performed according to the description for the pancreas method with modifications according to Saito et al., J. Neurochem. 37, 483-490, 1981.
Male Hartley guinea pigs (300-500 g) were sacrificed by decapitation and the brains were removed and placed in ice-cold 50 mM, Tris HCl plus 7.58 g/l Trizma-7.4 (pH 7.4 at 25° C.). Cerebral cortex was dissected and used as a receptor source. Each gram of fresh guinea pig brain tissue was homogenized in 10 ml of Tris Trizma buffer with a Brinkman polytron PT-10. The homogenates were centrifuged at 42,000 g for 15 min. […] All assays were run in duplicate or triplicate. The reaction mixtures were incubated at 25° C. for 2 hours and centrifuged in a Beckman Microfuge (4 minutes) immediately after adding 1 ml of ice-cold incubation buffer. The supernatant was aspirated and discarded, pellets were counted with a Beckman gamma 5000.

Another assay addresses T2, gastrin receptor (Cavia porcellus, UniProt H0VZC5).
T2 construct: Gastric mucosa from guinea pigs (300-500 g body weight, male Hartley) were washed thoroughly and minced; from tissue; host or cells: gastric mucosal glands of male Hartley guinea pigs
Description: Gastrin receptor binding in guinea pig gastric glands. The settings on record: guinea pig gastric mucosal glands. As for the experimental part:
Gastrin antagonist activity of compounds of Formula I is determined using the following assay: […]
GASTRIN RECEPTOR BINDING IN GUINEA PIG GASTRIC GLANDS
Guinea pig gastric mucosal glands were prepared by the procedure of Berglingh and Obrink Acta Physiol. Scand. 96: 150 (1976) with a slight modification according to Praissman et al. C. J. Receptor Res. 3: (1983). Gastric mucosa from guinea pigs (300-500 g body weight, male Hartley) were washed thoroughly and minced with fine scissors in standard buffer consisting of the following: 130 mM NaCl, 12 mM NaHCO3, 3 mM NaH2 PO4, 3 mM Na2 HPO4, 3 mM K2 HPO4, 2 mM MgSO4, 1 mM CaCl2, 5 mM glucose and 4 mM L-glutamine, 25 mM HEPES at pH 7.4. The minced tissues were washed and then incubated in a 37° C. shaker bath for 40 minutes with the buffer containing 0.1% collagenase and 0.1% BSA and bubbled with 95% O2 and 5% CO2. The tissues were passed twice through a 5 ml glass syringe to liberate the gastric glands, and then filtered through 200 mesh nylon. The filtered glands were centrifuged at 270 g for 5 minutes and washed twice by resuspension and centrifugation.

For assay [2], the target named is T3, CCK receptor (rat pancreas membranes) (Rattus norvegicus, UniProt P30551).
T3 construct: The whole pancreas was dissected free of fat tissue and was homogenized; from tissue; host or cells: pancreas of male Sprague-Dawley rats (membranes)
T3 sequence (P30551 1-444): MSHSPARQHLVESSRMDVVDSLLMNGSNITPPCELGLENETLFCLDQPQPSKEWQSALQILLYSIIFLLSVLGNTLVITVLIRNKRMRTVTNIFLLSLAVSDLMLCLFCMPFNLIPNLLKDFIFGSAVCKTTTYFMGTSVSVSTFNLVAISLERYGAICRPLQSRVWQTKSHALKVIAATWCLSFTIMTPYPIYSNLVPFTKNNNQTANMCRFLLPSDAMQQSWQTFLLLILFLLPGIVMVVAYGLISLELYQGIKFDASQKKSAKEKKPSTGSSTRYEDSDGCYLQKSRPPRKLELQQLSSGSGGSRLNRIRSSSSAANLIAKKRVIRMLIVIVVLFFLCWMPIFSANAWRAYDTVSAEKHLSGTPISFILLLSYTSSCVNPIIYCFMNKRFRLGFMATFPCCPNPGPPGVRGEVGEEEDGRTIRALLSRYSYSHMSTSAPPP
Briefly: 125I-CCK receptor binding (pancreas). The settings on record: for effect on the 125I-CCK receptor binding assay: added as protease inhibitor. As for the experimental part:
CCK-33 was radiolabeled with ^125 I-Bolton Hunter reagent (2000 Ci/mmole) as described by Sankara et al. (J. Biol. Chem. 254: 9349-9351, 1979). Receptor binding was performed according to Innis and Snyder (Proc. Natl. Acad. Sci. 77: 6917-6921, 1980) with the minor modification of adding the additional protease inhibitors, phenylmethane sulfonyl fluoride and o-phenanthroline. The latter two compounds have no effect on the ^125 I-CCK receptor binding assay.
Male Sprague-Dawley rats (200-350 g) were sacrificed by decapitation. The whole pancreas was dissected free of fat tissue and was homogenized in 20 volumes of ice-cold 50 mM, Tris HCl (pH 7.7 at 25° C.) with a Brinkmann Polytron PT 10. The homogenates were centrifuged at 48,000 g for 10 min. Pellets were resuspended in Tris Buffer, centrifuged as above and resuspended in 200 volumes of binding assay buffer (50 mM Tris HCl, pH 7.7 at 25° C., 5 mM dithiothrietol, 0.1 mM bacitracin, 1.2 mM phenylmethane sulfonyl fluoride and 0.5 mM o-phenanthroline). […] All assays were run in duplicate or triplicate. The reaction mixtures were incubated at 37° C. for 30 minutes and centrifuged in a Beckman Microfuge (4 minutes) immediately after adding 1 ml of ice-cold incubation buffer. The supernatant was aspirated and discarded, pellets were counted with a Beckman gamma 5000. For Scatchard analysis (Ann. N.Y. Acad. Sci. 51: 660, 1949), ^125 I-CCK-33 was progressively diluted with increasing concentrations of CCK-33

A further assay relates to gastrin. The settings on record: in vitro; cited from earlier work.
The mark [3] stands for this setting: 125I-CCK-33, rat pancreas, 37° C., 30 minutes, read-out: IC50 (uM) 125I-CCK Pancreas.

“Also recorded” adds a separate entry of the source. Read-outs that look alike come from different tables or passages of the source. Where a SMILES comes first, the peptide text is derived from it. [ ]: non-standard residue; d: D form. The star is where a group is joined. sY = N[C@@H](Cc1ccc(OS(=O)(=O)O)cc1)C(=O)O; Cbz = O=C(OCc1ccccc1)*; Boc = CC(C)(C)OC(=O)*

T2 sequence (H0VZC5 entry or part of it): as the sequence (H0VZC5 entry or part of it) above

With `CCCC(=O)Nc1nc2c(ncn2[C@@H]2O[C@@H]3COP(=O)(O)O[C@H]3[C@H]2OC(=O)CCC)c(=O)[nH]1` [dibutyryl cyclic GMP], the CCK antagonist activity result in the assay with CCK receptor is given as “the most potent”.
On to `CSCC[C@H](NC(=O)OC(C)(C)C)C(=O)N[C@@H](CC(=O)O)C(=O)N[C@@H](Cc1ccccc1)C(N)=O` [Boc-Met-Asp-Phe-NH2] (Boc-Met-Asp-Phe-NH2), for which, in the assay on CCK receptor, the CCK antagonist activity result was “can function as CCK antagonists”.
With `CSCC[C@H](N)C(=O)N[C@@H](CC(=O)O)C(=O)N[C@@H](Cc1ccccc1)C(N)=O` [Met-Asp-Phe-NH2] (H-Met-Asp-Phe-NH2), in the assay on CCK receptor, the CCK antagonist activity result is “can function as CCK antagonists”.
Regarding `O=C(O)CNC1=Nc2ccccc2C(c2ccccc2F)=N[C@@H]1Cc1c[nH]c2ccccc12` [Example 8, 2-Carboxymethylamino-3(R)-(3'-indolyl)methyl-5-(2'-fluorophenyl)-2H-1,4-benzodiazepine], the IC50 worked out at 31 µM in assay [1], 2.7 µM on gastrin receptor and 3.6 µM in assay [2] (setting [3]).
Regarding `NC1=Nc2ccccc2C(c2ccccc2F)=N[C@@H]1Cc1c[nH]c2ccccc12` [Example 3, 2-Amino-3(R)-(3'-indolyl)methyl-5-(2'-fluorophenyl)-2H-1,4-benzodiazepine], the IC50 in assay [2] was determined as 1.7 µM.
In the case of `O=S(=O)(F)Cc1ccccc1` [phenylmethane sulfonyl fluoride, reference compound], in assay [2], the “effect on the 125I-CCK receptor binding assay” value is on record as “no effect”.
Regarding `O=C(O)CNC1=Nc2ccccc2C(c2ccccc2)=NC1NC(=O)Nc1ccc(Cl)cc1` (centres unmarked) [Example 9, N-[3-(((4-Chlorophenyl)aminocarbonyl)amino)-5-phenyl-3H-1,4-benzodiazepin-2-yl]-glycine], the half-maximal inhibitory concentration (IC50) is 0.11 µM in assay [1], 0.032 µM on gastrin receptor and 0.069 µM in assay [2] (setting [3]).
Regarding `CNC1=Nc2ccccc2C(c2ccccc2F)=N[C@@H]1Cc1c[nH]c2ccccc12` [Example 4, 2-Methylamino-3(R)-(3'-indolyl)methyl-5-(2'-fluorophenyl)-2H-1,4-benzodiazepine], the IC50 in assay [1] was above 100 µM; at gastrin receptor it was 67 µM; in assay [2] (setting [3]), 4.5 µM.
As for `c1cnc2c(c1)ccc1cccnc12` [o-phenanthroline, reference compound], the “effect on the 125I-CCK receptor binding assay” value in assay [2] is given as “no effect”.
For `Fc1ccccc1C1=N[C@H](Cc2c[nH]c3ccccc23)C(Nc2ccccc2)=Nc2ccccc21` [Example 1, 2-Phenylamino-3(R)-(3'-indolyl)methyl-5-(2'-fluorophenyl)-2H-1,4-benzodiazepine], the values for the IC50 in assay [1] and in assay [2] (setting [3]) were 100 µM and 34 µM, respectively.
Take `CCCNC1=Nc2ccccc2C(c2ccccc2F)=N[C@@H]1Cc1c[nH]c2ccccc12` [Example 7, 2-Propylamino-3(R)-(3'-indolyl)methyl-5-(2-fluorophenyl)-2H-1,4-benzodiazepine]: the IC50 is above 100 µM in assay [1] and 2.7 µM in assay [2].
With `CCCN(CCC)C(=O)C(CCC(=O)O)NC(=O)c1ccccc1` (centres unmarked) [proglumide], in the assay with gastrin, the gastrin antagonist activity entry is “very weak in vitro antagonists”.
For `CSCC[C@H](NC(=O)[C@H](Cc1ccc(OS(=O)(=O)O)cc1)NC(=O)OCc1ccccc1)C(=O)NCC(=O)N[C@@H](Cc1c[nH]c2ccccc12)C(=O)N[C@@H](CCSC)C(=O)N[C@@H](CC(=O)O)C(N)=O` [Cbz-Tyr(SO3 H)-Met-Gly-Trp-Met-Asp-NH2] (Cbz-[sY]MGWMD-NH2), the CCK antagonist activity entry in the assay on CCK receptor is listed as “can function as CCK antagonists; also recorded: partial agonist”.
On to `N#CNC1=Nc2ccccc2C(c2ccccc2F)=N[C@@H]1Cc1c[nH]c2ccccc12` [Example 6, 2-Cyanoamino-3(R)-(3'-indolyl)methyl-5-(2'-fluorophenyl)-2H-1,4-benzodiazepine], for which the IC50 in assay [1] came out at 100 µM; in assay [2] (setting [3]), 2 µM.
On to `CCOC(=O)CNC1=Nc2ccccc2C(c2ccccc2)=NC1NC(=O)Nc1ccc(Cl)cc1` (centres unmarked) [Example 10, N-[3-(((4-Chlorophenyl)aminocarbonyl)amino)-5-phenyl-3H-1,4-benzodiazepin-2-yl]-glycine ethyl ester], for which the IC50 in assay [2] (setting [3]) came out at 1.4 µM.
On to `CCOC(=O)CNC1=Nc2ccccc2C(c2ccccc2F)=N[C@@H]1Cc1c[nH]c2ccccc12` [Example 5, 2-Ethoxycarbonylmethylamino-3(R)-(3'-indolyl)methyl-5-(2'-fluorophenyl)-2H-1,4-benzodiazepine], for which the IC50 came to 49 µM in assay [1] and 23 µM in assay [2] (setting [3]).

For orientation: IC50 means the midpoint of a concentration-inhibition curve.
